Source: publication PMC5359596, “A new electro-optical approach for conductance measurement: an assay for the study of drugs acting on ligand-gated ion channels” (Scientific Reports, 2017)

What was measured:
Assay type in all cases: cell-based
P2RX7 receptor [1] = target: T1, P2RX7 receptor (Homo sapiens, UniProt Q99572); assay: ionChannelΩ conductance assay, HEK-293 expressing P2RX7; settings: HEK-293_P2RX7, agonist
T1 construct: host or cells: HEK-293
T1 sequence (Q99572 1-595): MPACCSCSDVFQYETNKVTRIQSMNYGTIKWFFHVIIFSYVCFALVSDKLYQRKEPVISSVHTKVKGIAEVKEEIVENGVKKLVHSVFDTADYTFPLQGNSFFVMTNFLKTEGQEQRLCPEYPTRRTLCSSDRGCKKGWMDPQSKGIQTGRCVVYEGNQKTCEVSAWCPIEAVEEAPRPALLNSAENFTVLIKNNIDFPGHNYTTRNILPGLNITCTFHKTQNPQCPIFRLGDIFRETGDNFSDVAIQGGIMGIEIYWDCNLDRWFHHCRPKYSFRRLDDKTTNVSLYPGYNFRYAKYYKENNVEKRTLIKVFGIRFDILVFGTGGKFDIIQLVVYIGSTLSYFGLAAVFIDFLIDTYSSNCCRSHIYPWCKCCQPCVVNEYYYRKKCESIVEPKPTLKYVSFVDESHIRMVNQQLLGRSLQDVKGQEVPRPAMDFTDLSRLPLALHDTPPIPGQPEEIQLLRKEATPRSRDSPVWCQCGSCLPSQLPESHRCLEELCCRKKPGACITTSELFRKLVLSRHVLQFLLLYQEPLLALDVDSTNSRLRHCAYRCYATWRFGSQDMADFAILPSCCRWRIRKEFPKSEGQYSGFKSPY

P2RX7 receptor [2] = target: T1, P2RX7 receptor; assay: FLIPR (GCaMP2.1 calcium biosensor), HEK-293 expressing P2RX7; settings: HEK-293_P2RX7, agonist
Description: (§1) Intracellular calcium concentration was measured by: GCaMP2.1 calcium biosensor for P2RX7; Screen Quest™ Fluo-8 No. Wash Calcium Assay Kit (AAT Bioquest) for TRPV1; and Calcium Assay Kit (Molecular Devices) for TRPM2.
For the P2RX7 assay, cells were preincubated in Low Calcium, Magnesium free Tyrode’s Buffer.
Reference blockers were injected at FLIPRTetra instrument and fluorescence signal was recorded. After 10 minutes a second injection of reference activators was performed and fluorescence was measured.

hTRPV1 = target: T2, hTRPV1 (Homo sapiens, UniProt Q8NER1); assay: ionChannelΩ electro-optical conductance assay, CHO-K1 expressing hTRPV1; settings: scatter plot linear regression, highest capsaicin concentrations
T2 construct: host or cells: CHO-K1
T2 sequence (Q8NER1 whole entry): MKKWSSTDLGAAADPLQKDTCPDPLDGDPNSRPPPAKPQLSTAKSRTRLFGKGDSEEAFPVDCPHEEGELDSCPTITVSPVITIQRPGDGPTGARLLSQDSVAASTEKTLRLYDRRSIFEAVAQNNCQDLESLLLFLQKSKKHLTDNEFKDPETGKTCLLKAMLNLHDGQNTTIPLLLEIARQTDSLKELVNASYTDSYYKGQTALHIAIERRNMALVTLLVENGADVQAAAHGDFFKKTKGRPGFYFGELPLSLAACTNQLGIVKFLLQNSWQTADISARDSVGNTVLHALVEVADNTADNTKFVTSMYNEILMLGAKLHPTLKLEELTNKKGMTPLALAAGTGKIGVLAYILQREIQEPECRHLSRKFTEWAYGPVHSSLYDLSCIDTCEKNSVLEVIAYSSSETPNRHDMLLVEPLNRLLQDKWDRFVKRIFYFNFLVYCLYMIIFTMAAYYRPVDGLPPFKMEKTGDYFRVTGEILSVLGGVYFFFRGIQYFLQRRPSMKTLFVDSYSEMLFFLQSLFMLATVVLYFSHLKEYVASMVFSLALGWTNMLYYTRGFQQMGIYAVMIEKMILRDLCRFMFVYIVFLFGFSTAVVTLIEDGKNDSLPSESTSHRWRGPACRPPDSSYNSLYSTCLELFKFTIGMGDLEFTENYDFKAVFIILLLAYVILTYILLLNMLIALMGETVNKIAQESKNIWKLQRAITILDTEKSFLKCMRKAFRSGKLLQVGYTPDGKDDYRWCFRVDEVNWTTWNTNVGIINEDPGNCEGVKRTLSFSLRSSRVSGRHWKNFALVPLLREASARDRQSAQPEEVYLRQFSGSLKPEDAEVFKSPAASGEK
Description: (§2) Test current pulses (mono or biphasic) were administered to cells by parallel electrodes placed on the plane of the cells. Pulse length was several times the membrane time constant of the investigated cells in order to acquire images at a time of the pulse when plateau was fully established. Current intensity was set high enough to generate significant variations in the fluorescence signal, still avoiding membrane electroporation[35]. More specifically, a plot of the ΔFc/FRc values obtained at increasing current values was obtained: only current intensities giving correlative values lying on the linear part of the plot were used. […]
(§3) Images are processed off-line by a MATLAB-based Image Analysis program, developed in the laboratory, which offers the possibility to employ different filters, parameters and types of analysis in order to extract the data necessary to draw CRCs. […] More specifically, pixels were selected as part of the shape mask when the following requirements were met: to be part of the cell (recognition of object boundary from fluorescence signals); to be confined to the plasma membrane region (calculation of a ring of depth boundaries). […] In either case, mean values ± standard error (calculated from values obtained in the different sampling areas of the same well) were obtained at the various concentration of the drug and fitted by a nonlinear regression curve. […]

TRPM2 [3] = target: T3, TRPM2 (Homo sapiens, UniProt O94759); assay: FLIPR (Calcium Assay Kit), HEK-293 expressing TRPM2; settings: HEK-293_TRPM2
T3 construct: host or cells: HEK-293
T3 sequence (O94759 whole entry): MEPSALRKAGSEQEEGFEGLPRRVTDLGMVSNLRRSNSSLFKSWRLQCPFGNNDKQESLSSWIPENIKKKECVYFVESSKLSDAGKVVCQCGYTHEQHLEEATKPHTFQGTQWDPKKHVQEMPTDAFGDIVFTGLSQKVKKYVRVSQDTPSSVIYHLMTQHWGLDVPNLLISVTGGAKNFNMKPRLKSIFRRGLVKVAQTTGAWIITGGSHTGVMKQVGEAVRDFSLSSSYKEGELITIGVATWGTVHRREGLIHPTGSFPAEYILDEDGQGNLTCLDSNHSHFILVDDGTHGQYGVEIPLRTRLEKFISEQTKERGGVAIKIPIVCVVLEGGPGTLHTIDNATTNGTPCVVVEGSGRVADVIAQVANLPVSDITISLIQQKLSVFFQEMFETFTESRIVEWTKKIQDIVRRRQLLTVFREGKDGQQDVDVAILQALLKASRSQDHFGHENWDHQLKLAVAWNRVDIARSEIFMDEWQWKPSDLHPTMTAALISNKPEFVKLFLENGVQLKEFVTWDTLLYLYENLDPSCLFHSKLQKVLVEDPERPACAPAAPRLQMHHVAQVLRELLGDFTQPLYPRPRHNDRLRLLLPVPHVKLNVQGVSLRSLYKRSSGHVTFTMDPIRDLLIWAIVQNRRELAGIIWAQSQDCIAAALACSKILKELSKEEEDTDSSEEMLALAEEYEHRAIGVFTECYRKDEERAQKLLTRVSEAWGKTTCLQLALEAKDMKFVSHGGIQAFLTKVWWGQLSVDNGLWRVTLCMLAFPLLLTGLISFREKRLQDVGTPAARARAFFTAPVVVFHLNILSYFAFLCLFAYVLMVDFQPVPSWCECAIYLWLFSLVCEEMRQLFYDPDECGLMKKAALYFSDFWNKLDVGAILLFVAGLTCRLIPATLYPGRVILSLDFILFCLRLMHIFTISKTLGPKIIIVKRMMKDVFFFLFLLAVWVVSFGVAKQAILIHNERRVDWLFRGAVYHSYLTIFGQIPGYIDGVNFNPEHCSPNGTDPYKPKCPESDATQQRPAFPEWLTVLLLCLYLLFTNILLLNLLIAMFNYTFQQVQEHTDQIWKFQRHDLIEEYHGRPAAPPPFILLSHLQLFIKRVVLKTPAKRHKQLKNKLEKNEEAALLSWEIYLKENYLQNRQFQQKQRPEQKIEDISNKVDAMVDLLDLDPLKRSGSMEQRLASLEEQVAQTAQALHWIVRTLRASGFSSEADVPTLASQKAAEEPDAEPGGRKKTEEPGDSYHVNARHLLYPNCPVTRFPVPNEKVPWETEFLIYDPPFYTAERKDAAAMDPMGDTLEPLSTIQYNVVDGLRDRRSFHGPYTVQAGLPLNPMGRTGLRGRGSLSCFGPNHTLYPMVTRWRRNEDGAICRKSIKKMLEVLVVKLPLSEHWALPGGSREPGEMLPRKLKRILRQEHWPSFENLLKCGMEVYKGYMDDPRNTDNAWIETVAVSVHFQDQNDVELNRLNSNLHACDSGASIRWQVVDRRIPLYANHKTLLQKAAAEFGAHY
Description: as §1

TRPM2 [4] = target: T3, TRPM2; assay: ionChannelΩ conductance assay, HEK-293 expressing TRPM2; settings: HEK-293_TRPM2
Description: as §2, §3

HeLa cells = assay: Optical detection of plasma membrane resistance changes in HeLa cells (conventional microscope); settings: increasing concentrations
Source text: Resistance (R) determines the magnitude of the passive changes observed in membrane potential in response to a constant current: the lower the resistance, the lower the membrane potential variation (Supplementary Figure 1). Accordingly, we investigated the possibility of using local membrane potential variations imposed by a test square current pulse to measure changes in membrane resistance. The variation of VSD fluorescence values during the current pulse, were quantified as ΔF, i.e. the difference between the plateau value reached during the electric stimulus (FS) and the pre-stimulus, resting, value (FR) (Supplementary Figure 1). ΔF values were further normalized to their respective resting values (ΔF/FR) to take into account even minimal variations of VSD fluorescence due to dye bleaching. […]
Images were processed off-line by an image analysis program developed in MATLAB (The MathWorks). […] Fluorescence intensity values were calculated as the mean of the values obtained in the selected ROIs within the 3 stimuli series administered in the different conditions (before and during the plateau phase of the pulse, in the absence and in the presence of a test compound). […]

Q: How did the EC50 (P2RX7 receptor [1]) turn out when “2′(3′)-O-(4-Benzoylbenzoyl)adenosine 5′-triphosphate triethylammonium salt [BzATP]” was run?
A: 3.4 µM

Q: What about the EC50 (P2RX7 receptor [2]) of the same molecule?
A: 6.35 µM

Q: For `COc1cc(CNC(=O)CCCC/C=C/C(C)C)ccc1O` [capsaicin], which “unitary slope resistance, final value at increasing concentrations” value (hTRPV1) is on record?
A: ~20 % of control

Q: What does the source list for `COC1=C(N)C(=O)c2nc(-c3nc(C(=O)O)c(C)c(-c4ccc(OC)c(OC)c4O)c3N)ccc2C1=O` [streptonigrin]?
A: EC50 (TRPM2 [3]): 4.3 µM; EC50 (TRPM2 [4]): 14.1 µM

Q: With “Streptolysin-O: bacterial protein able to insert into the eukaryotic plasma membrane and form non-selective ion pores” as the molecule, how does the “VSD responses to electric square pulses (membrane resistance)” value (HeLa cells) read?
A: progressively reduced in amplitude
